According to ChEMBL document CHEMBL1137640, “In vitro antimycobacterial spectrum of a diarylquinoline ATP synthase inhibitor” (2007):
In brackets after ≈: the same amount, converted by molar mass.

How the values were obtained:
Type in all cases: functional
Mycobacterium avium [1] = assay: Antimicrobial activity against Mycobacterium avium 16 after 2 to 4 weeks by two fold dilution method
Mycolicibacterium vaccae = assay: Antimicrobial activity against Mycobacterium vaccae after 2 to 4 weeks by two fold dilution method
Mycobacterium avium [2] = assay: Antimicrobial activity against Mycobacterium avium 6 after 2 to 4 weeks by two fold dilution method
Mycobacterium avium [3] = assay: Antimicrobial activity against Mycobacterium avium 8 after 2 to 4 weeks by two fold dilution method
[4] = test system: Mycobacterium intracellulare; assay: Antimicrobial activity against Mycobacterium intracellular 7 after 2 to 4 weeks by two fold dilution method
Mycolicibacter terrae = assay: Antimicrobial activity against Mycobacterium terrae after 2 to 4 weeks by two fold dilution method
Mycobacterium avium [5] = assay: Antimicrobial activity against Mycobacterium avium 11 after 2 to 4 weeks by two fold dilution method
[6] = test system: Mycolicibacterium fortuitum; assay: Antimicrobial activity against Mycobacterium fortuitum after 2 to 4 weeks by two fold dilution method
Mycobacterium avium [7] = assay: Antimicrobial activity against Mycobacterium avium 23 after 2 to 4 weeks by two fold dilution method
Mycobacterium kansasii = assay: Antimicrobial activity against Mycobacterium kansasii after 2 to 4 weeks by two fold dilution method
Mycobacterium xenopi = assay: Antimicrobial activity against Mycobacterium xenopi after 2 to 4 weeks by two fold dilution method
[8] = test system: Mycobacterium avium complex sp.; assay: Antimicrobial activity against Mycobacterium avium complex isolate after 2 to 4 weeks by two fold dilution method
Mycobacterium simiae = assay: Antimicrobial activity against Mycobacterium simiae after 2 to 4 weeks by two fold dilution method
[9] = test system: Mycobacterium interjectum; assay: Antimicrobial activity against Mycobacterium interjectum after 2 to 4 weeks by two fold dilution method
Mycolicibacterium phlei = assay: Antimicrobial activity against Mycobacterium phlei after 2 to 4 weeks by two fold dilution method
Mycobacterium malmoense = assay: Antimicrobial activity against Mycobacterium malmoense after 2 to 4 weeks by two fold dilution method
[10] = test system: Mycolicibacterium novocastrense; assay: Antimicrobial activity against R207910 resistant Mycobacterium novocastrense after 2 to 4 weeks by two fold dilution method
Mycobacterium gordonae = assay: Antimicrobial activity against Mycobacterium gordonae after 2 to 4 weeks by two fold dilution method
Mycobacterium shimoidei = assay: Antimicrobial activity against Mycobacterium shimoidei after 2 to 4 weeks by two fold dilution method
Mycobacterium conspicuum = assay: Antimicrobial activity against Mycobacterium conspicuum after 2 to 4 weeks by two fold dilution method
[11] = test system: Mycolicibacterium mageritense; assay: Antimicrobial activity against Mycobacterium mageritense after 2 to 4 weeks by two fold dilution method
Mycobacterium avium [12] = assay: Antimicrobial activity against Mycobacterium avium 2 after 2 to 4 weeks by two fold dilution method
[13] = test system: Mycobacterium scrofulaceum; assay: Antimicrobial activity against Mycobacterium scrofulaceum after 2 to 4 weeks by two fold dilution method
Mycobacterium avium [14] = assay: Antimicrobial activity against Mycobacterium avium 4 after 2 to 4 weeks by two fold dilution method
Mycobacterium szulgai = assay: Antimicrobial activity against Mycobacterium szulgai after 2 to 4 weeks by two fold dilution method
Mycobacteroides chelonae = assay: Antimicrobial activity against Mycobacterium chelonae after 2 to 4 weeks by two fold dilution method
Mycobacterium avium [15] = assay: Antimicrobial activity against Mycobacterium avium 9 after 2 to 4 weeks by two fold dilution method
[16] = test system: Mycobacterium intracellulare; assay: Antimicrobial activity against Mycobacterium intracellular 14 after 2 to 4 weeks by two fold dilution method
[17] = test system: Mycobacterium tuberculosis; assay: Antimicrobial activity against drug-susceptible Mycobacterium tuberculosis isolate after 2 to 4 weeks by two fold dilution method
Mycobacterium avium [18] = assay: Antimicrobial activity against Mycobacterium avium 1 after 2 to 4 weeks by two fold dilution method
Mycobacterium avium [19] = assay: Antimicrobial activity against Mycobacterium avium 21 after 2 to 4 weeks by two fold dilution method
Mycolicibacter hiberniae = assay: Antimicrobial activity against Mycobacterium hiberniae after 2 to 4 weeks by two fold dilution method
[20] = test system: Mycobacterium intracellulare; assay: Antimicrobial activity against Mycobacterium intracellular 20 after 2 to 4 weeks by two fold dilution method
[21] = Mycobacterium avium complex sp.

COc1nc2ccc(Br)cc2cc1[C@@H](c1ccccc1)[C@@](O)(CCN(C)C)c1cccc2ccccc12 [BEDAQUILINE]
MIC (Mycobacterium avium [1]): 0.06 µg/mL (≈ 0.108 µM)
MIC (Mycolicibacterium vaccae): 0.03 µg/mL (≈ 0.054 µM)
MIC (Mycobacterium avium [2]): 0.13 µg/mL (≈ 0.234 µM)
MIC (Mycobacterium avium [3]): 0.03 µg/mL (≈ 0.054 µM)
MIC [4]: 0.03 µg/mL (≈ 0.054 µM)
MIC (Mycolicibacter terrae): 0.03 µg/mL (≈ 0.054 µM)
MIC (Mycobacterium avium [5]): 0.03 µg/mL (≈ 0.054 µM)
MIC [6]: 0.13 µg/mL (≈ 0.234 µM)
MIC (Mycobacterium avium [7]): 0.03 µg/mL (≈ 0.054 µM)
MIC (Mycobacterium kansasii): 0.03 µg/mL (≈ 0.054 µM)
MIC (Mycobacterium xenopi): 4 µg/mL (≈ 7.2 µM)
MI50 [8]: 0.03 µg/mL
MIC [8, 21]: 0.03 µg/mL (≈ 0.054 µM)
MIC90 [8, 21]: 0.13 µg/mL (≈ 0.234 µM)
MIC (Mycobacterium simiae): 0.03 µg/mL (≈ 0.054 µM)
MIC [9]: 0.03 µg/mL (≈ 0.054 µM)
MIC (Mycolicibacterium phlei): 0.03 µg/mL (≈ 0.054 µM)
MIC (Mycobacterium malmoense): 0.5 µg/mL (≈ 0.9 µM)
MIC [10]: 8 µg/mL (≈ 14.4 µM)
MIC (Mycobacterium gordonae): 0.03 µg/mL (≈ 0.054 µM)
MIC (Mycobacterium shimoidei): 8 µg/mL (≈ 14.4 µM)
MIC (Mycobacterium conspicuum): 0.13 µg/mL (≈ 0.234 µM)
MIC [11]: 0.03 µg/mL (≈ 0.054 µM)
MIC (Mycobacterium avium [12]): 0.03 µg/mL (≈ 0.054 µM)
MIC [13]: 0.03 µg/mL (≈ 0.054 µM)
MIC (Mycobacterium avium [14]): 0.03 µg/mL (≈ 0.054 µM)
MIC (Mycobacterium szulgai): 0.03 µg/mL (≈ 0.054 µM)
MIC (Mycobacteroides chelonae): 0.06 µg/mL (≈ 0.108 µM)
MIC (Mycobacterium avium [15]): 0.13 µg/mL (≈ 0.234 µM)
MIC [16]: 0.03 µg/mL (≈ 0.054 µM)
MIC [17]: 2 ng/mL (≈ 0.0036 µM)
MIC50 [17]: 0.03 µg/mL (≈ 0.054 µM)
MIC90 [17]: 0.06 µg/mL (≈ 0.108 µM)
MIC (Mycobacterium avium [18]): 0.03 µg/mL (≈ 0.054 µM)
MIC (Mycobacterium avium [19]): 0.03 µg/mL (≈ 0.054 µM)
MIC (Mycolicibacter hiberniae): 0.03 µg/mL (≈ 0.054 µM)
MIC [20]: 0.03 µg/mL (≈ 0.054 µM)
